The target in one assay is T1, PDEδ (Homo sapiens, UniProt O43924).
T1 construct: GST (N); made in house; host or cells: E. coli Rosetta 2
The assay is described as follows: Fluorescence polarization, direct binding of probe 10. The conditions noted are these: 10 nM probe 10, titration of PDEδ. The protocol: RHOGDI1 displaced liposome -bound RAC1 from the surface of L1 chip with a koff of 0.016 […]
bound RAC1. Calculated rate constants by mono-exponential fitting of RU decays were 0.02 and 0.032 s-1 for RHOGDI1-mediated RAC1 displacement from the liposomes in the presence of 7a and 7d, respectively. (d) Competition-based fluorescence polarization experiments were performed by titration of 7a against 10 nM fluorescein-labelled atorvastatin and GST-PDEδ.
(e) Fluorescence polarization experiment using 10 nM probe 10 and titration of PDEδ.
(1 picture or pasted object on this page, not shown here)
Label-free quantification (LFQ) intensities were logarithmized (log2) and proteins, which were not three times quantified in at least one of the groups, were filtered off. […]
(§1) Fluorescence polarization
The binding of probe 10 to RHOGDI1-3 was confirmed by fluorescence polarization experiments. […] The change in fluorescence polarization was monitored at an excitation / emission wavelengths of 535 nm and 593 nm, respectively. […]
To determine the effect of 7a on the binding of RHOGDI1 to non-prenylated RAC1-GDP, fluorescence polarization measurements were performed by titrating 1 µM TAMRA-GDP-bound RAC1 with increasing concentrations of RHOGDI1 in the presence and absence of 50 µM 7a in buffer containing 30 mM Tris-HCl, pH 7.5, 150 mM NaCl, 5 mM MgCl2, 1% DMSO. […]
For orientation: Polarisation of emitted light reports the rotation of a fluorescent probe.

Assay [1] concerns the target T2, RHOGDI1 (Homo sapiens, UniProt P52565).
T2 construct: GST; made in house; host or cells: E. coli (XL1-Blue / BL21)
The assay is described as follows: Fluorescence polarization binding of probe 10. As to conditions: fluorescence polarization; read-out: KD (RHOGDI1Δ25). The protocol: as §1
(§2) The binding of probe 10 to RHOGDI1-3 was confirmed by fluorescence polarization experiments. RHOGDI1 was titrated against 0.5 µM of the fluorescent Rhonin derivative 10 in buffer containing 20 mM Hepes, pH 7.4, 150 mM NaCl, 5 mM MgCl2, 3 mM DTT and incubated for 1 h. The change in fluorescence polarization was monitored at an excitation / emission wavelengths of 535 nm and 593 nm, respectively. […]
(§3) Protein expression and purification
(§4) RHOGDI1 delta15, RHOGDI1 delta25, RHOGDI1-3 were produced in E. coli (XL1-Blue) as a GST recombinant protein as described previously.[9] In summary, protein were expressed in E.coli BL21 upon addition of IPTG overnight. Cell were collected and lysed in a lysis buffer, containing 30 mM Tris-NaOH pH 7.4, 150 mM NaCl, 1 mM DTT, and 5 mM MgCl2. Cells were further lysed using sonication. After centrifugation (20 min at 20,000 g) of lysate, the clear supernatant was used for purification in an ÄKTAprime system connected to a GSH column […]
(§5) Insect cell purification system was used for expression and purification of prenylated proteins based on an established protocol.[9] Sf9/or TNAO38 insect cells (Sf9 used only for virus generation and amplification) were grown to the level of 1.5×10^6 cells/ml before they were transduced with Baculoviruses encoding genes related to the RHO GTPases. Cells were resuspended in lysis buffer, containing 20 mM HEPES-NaOH pH 7.4, 150 mM NaCl, 2 mM β-mercaptoethanol, 5 mM MgCl2, 0.1 mM GDP, 10 mM imidazole and the optimized detergents including 1% CHAPS and 0.5% sodium cholate .[9] Cells were lysed by s onication in ice. After
T2 sequence (P52565 26-204): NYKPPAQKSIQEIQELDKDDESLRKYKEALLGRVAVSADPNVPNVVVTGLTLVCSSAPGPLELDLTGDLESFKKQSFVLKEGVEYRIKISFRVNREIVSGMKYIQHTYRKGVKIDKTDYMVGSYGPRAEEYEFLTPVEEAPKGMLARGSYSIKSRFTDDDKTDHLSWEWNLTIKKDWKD

The next assay deals with T3, RHOGDI3 (Homo sapiens, UniProt Q99819).
T3 construct: GST; made in house; host or cells: E. coli (XL1-Blue / BL21)
T3 sequence (Q99819 whole entry, species assumed): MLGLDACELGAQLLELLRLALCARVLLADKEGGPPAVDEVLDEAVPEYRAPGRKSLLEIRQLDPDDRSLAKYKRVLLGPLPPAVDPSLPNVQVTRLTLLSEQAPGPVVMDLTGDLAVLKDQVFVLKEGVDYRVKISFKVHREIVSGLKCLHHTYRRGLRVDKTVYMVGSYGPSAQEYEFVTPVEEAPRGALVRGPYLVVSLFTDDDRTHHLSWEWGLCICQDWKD
The assay is described as follows: Fluorescence polarization binding of probe 10. Here is the method:
as §1, §2, §3, §4, §5

The target of assay [2] is RHOGDI1 (Homo sapiens, UniProt P52565). Briefly: Fluorescence polarization binding of probe 10. As to conditions: range from Figure 4e; read-out: KD, measured affinity between probe 10 and RHOGDI1. Here is the method:
as §1, §2, §3, §4, §5
Target sequence in this assay (P52565 2-204): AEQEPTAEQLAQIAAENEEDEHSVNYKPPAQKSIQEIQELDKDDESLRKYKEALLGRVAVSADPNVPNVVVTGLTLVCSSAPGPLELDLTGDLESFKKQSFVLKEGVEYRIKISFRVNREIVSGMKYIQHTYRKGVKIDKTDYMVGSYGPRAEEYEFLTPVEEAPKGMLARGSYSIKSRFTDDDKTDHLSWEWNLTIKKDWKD

The target in assay [3] is T4, RHOGDI1 (Homo sapiens, UniProt P52565).
T4 construct: GST; made in house; host or cells: E. coli (XL1-Blue / BL21)
Briefly: Fluorescence polarization binding of probe 10. The conditions noted are these: fluorescence polarization; read-out: KD (RHOGDI1Δ15). The protocol: as §1, §2, §3, §4, §5
T4 sequence (P52565 16-204): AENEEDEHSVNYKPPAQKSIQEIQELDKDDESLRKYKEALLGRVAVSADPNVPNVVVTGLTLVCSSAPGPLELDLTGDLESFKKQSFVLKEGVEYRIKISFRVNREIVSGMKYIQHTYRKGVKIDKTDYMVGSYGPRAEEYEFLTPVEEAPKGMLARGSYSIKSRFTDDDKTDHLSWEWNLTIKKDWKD

Another assay deals with T5, RHOGDI2 (Homo sapiens, UniProt P52566).
T5 construct: GST; made in house; host or cells: E. coli (XL1-Blue / BL21)
T5 sequence (P52566 whole entry, species assumed): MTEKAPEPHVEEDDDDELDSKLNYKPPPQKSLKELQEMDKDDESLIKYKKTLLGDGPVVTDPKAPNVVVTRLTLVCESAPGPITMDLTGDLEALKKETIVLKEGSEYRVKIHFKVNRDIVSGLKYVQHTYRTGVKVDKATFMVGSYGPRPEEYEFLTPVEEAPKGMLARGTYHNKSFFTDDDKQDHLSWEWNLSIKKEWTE
Briefly: Fluorescence polarization binding of probe 10. Here is the method:
as §1, §2, §3, §4, §5

Like-named read-outs stand apart in the source and are kept apart here.

T1 sequence (O43924 whole entry): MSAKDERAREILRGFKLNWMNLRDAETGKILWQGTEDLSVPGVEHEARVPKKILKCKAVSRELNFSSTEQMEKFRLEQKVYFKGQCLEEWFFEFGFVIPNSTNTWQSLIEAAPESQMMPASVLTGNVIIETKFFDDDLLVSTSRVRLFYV

`COC(=O)C1(C(CC(=O)c2ccccc2)c2ccc(C(=O)NCCOCCOCCNC(=O)CCc3ccc4n3[B-](F)(F)[N+]3=C(c5ccc[nH]5)C=CC3=C4)cc2)N=C(c2ccc(Br)cc2)C2C(=O)N(C)C(=O)C21` (stereo not drawn) [compound 10]: the “Binding of probe to PDEδ (in words)” value on PDEδ is reported as “binds to PDEδ only at higher concentrations”. Also, the Kd (commonly the equilibrium constant for the complex coming apart) at RHOGDI1 [1] is 3.09 µM; at RHOGDI3 it was 11.5 µM; on RHOGDI1 [2], 3.1 to 8.5 µM; on RHOGDI1 [3], 8.51 µM; at RHOGDI2, 9.08 µM.

These data come from PMC9313812, “The Pseudo‐Natural Product Rhonin Targets RHOGDI” (Angewandte Chemie (International Ed. in English), 2022).
